The source made the active and inactive calls. Where only a bound is given, the exact number is not on record here.

Assay [1] concerns the target DNA dC->dU-editing enzyme APOBEC-3A (Homo sapiens, UniProt P31941). The assay is described as follows: Dose Response confirmation of small molecule APOBEC3A DNA Deaminase Inhibitors via a fluorescence-based single-stranded DNA deaminase assay. [Related pubchem assays (depositor defined):AID493011, AID493024]. Format: functional.
The target in assay [2] is DNA dC->dU-editing enzyme APOBEC-3G (Homo sapiens, UniProt Q9HC16). In kind it is functional.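 Further: Dose-response counterscreen measuring inhibition of APOBEC3G DNA deaminase activity, run while confirming APOBEC3A inhibitors.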
DNA dC->dU-editing enzyme APOBEC-3G, sequence (Q9HC16 whole entry, the tested form may be a part): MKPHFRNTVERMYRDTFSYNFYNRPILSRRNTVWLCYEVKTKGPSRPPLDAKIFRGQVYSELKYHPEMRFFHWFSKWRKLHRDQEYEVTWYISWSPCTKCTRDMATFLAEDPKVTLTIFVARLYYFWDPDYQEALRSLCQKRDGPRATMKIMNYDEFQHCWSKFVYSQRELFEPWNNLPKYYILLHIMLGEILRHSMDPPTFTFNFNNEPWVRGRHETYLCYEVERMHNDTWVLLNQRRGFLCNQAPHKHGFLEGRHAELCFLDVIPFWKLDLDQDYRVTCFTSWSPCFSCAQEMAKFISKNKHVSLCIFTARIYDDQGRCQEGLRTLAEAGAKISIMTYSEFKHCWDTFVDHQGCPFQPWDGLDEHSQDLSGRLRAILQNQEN
Assay [3] concerns the target T1, Carboxy-terminal domain RNA polymerase II polypeptide A small phosphatase 1 (Homo sapiens, UniProt Q9GZU7).
T1 sequence (Q9GZU7 whole entry): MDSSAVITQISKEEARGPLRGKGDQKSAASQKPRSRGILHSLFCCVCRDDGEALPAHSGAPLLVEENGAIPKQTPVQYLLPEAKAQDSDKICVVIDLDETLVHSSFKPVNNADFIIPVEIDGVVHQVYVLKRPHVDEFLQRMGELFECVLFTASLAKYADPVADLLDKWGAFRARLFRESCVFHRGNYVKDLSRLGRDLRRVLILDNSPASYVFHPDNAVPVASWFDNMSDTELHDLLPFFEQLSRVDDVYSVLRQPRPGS
The assay is described as follows: inhibitors of CTDSP1, concentration-response testing, biochemical assay, absorbance-based, actives from ultra-high-throughput screening (AID 540297). Format: functional.

In assay [4] the target is T2, Short transient receptor potential channel 4 (Mus musculus, UniProt Q9QUQ5).
T2 sequence (Q9QUQ5 whole entry): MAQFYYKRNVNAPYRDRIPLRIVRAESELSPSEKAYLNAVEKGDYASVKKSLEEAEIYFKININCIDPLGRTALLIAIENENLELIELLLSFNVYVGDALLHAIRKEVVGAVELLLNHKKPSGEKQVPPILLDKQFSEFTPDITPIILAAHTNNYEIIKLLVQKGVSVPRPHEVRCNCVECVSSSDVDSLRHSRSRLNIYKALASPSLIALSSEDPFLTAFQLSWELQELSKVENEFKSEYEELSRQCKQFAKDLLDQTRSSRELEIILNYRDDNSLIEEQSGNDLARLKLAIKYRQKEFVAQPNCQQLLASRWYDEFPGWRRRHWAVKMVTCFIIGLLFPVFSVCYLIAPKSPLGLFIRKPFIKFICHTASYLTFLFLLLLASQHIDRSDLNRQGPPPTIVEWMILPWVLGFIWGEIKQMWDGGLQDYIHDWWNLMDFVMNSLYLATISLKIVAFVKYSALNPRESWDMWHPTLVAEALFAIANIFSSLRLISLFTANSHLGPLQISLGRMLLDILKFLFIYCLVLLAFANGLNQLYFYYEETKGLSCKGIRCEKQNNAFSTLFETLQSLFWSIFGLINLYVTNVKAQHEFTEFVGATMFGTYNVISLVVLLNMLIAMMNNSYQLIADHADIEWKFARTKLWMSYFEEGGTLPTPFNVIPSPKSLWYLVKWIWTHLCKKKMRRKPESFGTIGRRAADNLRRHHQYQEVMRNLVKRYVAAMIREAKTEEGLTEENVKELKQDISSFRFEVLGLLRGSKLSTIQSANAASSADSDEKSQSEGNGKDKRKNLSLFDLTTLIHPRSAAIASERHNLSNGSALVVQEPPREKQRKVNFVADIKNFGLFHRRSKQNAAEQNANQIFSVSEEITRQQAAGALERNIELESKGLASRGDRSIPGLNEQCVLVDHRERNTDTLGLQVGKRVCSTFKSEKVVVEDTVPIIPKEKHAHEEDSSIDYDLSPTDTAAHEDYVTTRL
The assay can be described thus: mouse TRPC4 channel inhibitors, dose response, cell-based, HEK293 TRPC4/mu-opioid, Fluo-4 calcium (AID 434942).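 Further: potency of inhibitors blocking the TRPC4 calcium response.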 In kind it is functional.

Assay [5] in a line: Luminescence Cell-Based Dose Confirmation HTS to Identify Activators of 5'UTR Stem-Loop Driven Alpha-Synuclein mRNA Translation in H4 Neuroglioblastoma Cells. [Related pubchem assays: 1829 (Project Summary), 1814 (Primary HTS)]. Format: functional.
Assay [6] can be described thus: Luminescence Cell-Based Dose Response HTS to Identify Activators of Luciferase Translation or Activity in H4 […] Cells. [Related pubchem assays: 1829 (Project Summary), 1814 (Primary HTS)]. Format: functional.
Assay [7] deals with BJ. The assay is described as follows: cytotoxicity toward BJ-TERT fibroblasts, dose response, cell-based, RAS-independent, luminescence (AID 1933). In kind it is functional. Conditions: Homo sapiens.
The subject of another assay is H4. The assay can be described thus: Luminescence Cell-Based Dose Response HTS to Identify Activators of 5'UTR Stem-Loop Driven Prion Protein mRNA Translation in H4 Neuroglioblastoma Cells. [Related pubchem assays: 1829 (Project Summary), 1814 (Primary HTS)]. Format: functional. Conditions: Homo sapiens.
For assay [8], the system named is BJ. The assay is described as follows: cells. Format: functional, cell-based. As to conditions: Homo sapiens.
Assay [9] concerns BJ. The assay is described as follows: cytotoxicity toward BJ-TERT-LT-ST fibroblasts, dose response, cell-based, RAS-independent, luminescence (AID 1935).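 Further: BJ fibroblasts immortalized with TERT plus LT and ST oncogenes.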 In kind it is functional. Conditions: Homo sapiens.
Assay [10] is described as follows: cytotoxicity toward DRD oncogenic fibroblasts, dose response, cell-based, non-viral oncogenic, luminescence (AID 1934). In kind it is functional. Conditions: Homo sapiens.
Assay [11] addresses T3, Microphthalmia-associated transcription factor (Homo sapiens, UniProt O75030).
T3 sequence (O75030 whole entry): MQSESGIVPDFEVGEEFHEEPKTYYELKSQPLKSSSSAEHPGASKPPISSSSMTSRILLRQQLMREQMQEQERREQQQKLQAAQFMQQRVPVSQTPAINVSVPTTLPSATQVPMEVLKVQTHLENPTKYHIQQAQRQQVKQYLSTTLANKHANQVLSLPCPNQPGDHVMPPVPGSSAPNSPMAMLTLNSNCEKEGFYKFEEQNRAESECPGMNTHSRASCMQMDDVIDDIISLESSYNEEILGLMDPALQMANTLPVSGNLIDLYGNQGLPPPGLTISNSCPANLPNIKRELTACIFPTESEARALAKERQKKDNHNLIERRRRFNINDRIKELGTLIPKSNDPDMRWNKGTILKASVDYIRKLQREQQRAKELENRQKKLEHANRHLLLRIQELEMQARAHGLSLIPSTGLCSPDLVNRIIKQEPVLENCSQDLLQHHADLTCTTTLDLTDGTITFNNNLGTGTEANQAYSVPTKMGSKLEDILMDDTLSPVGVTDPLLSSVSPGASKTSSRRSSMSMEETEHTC
The assay is described as follows: TRPM1 promoter luciferase signal decrease, dose response, MITF inhibitor project, cell-based, SK-MEL-5, cherry-picked, set 3 (AID 493073).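 Further: SK-MEL-5 melanoma cells with luciferase driven by the MITF target TRPM1 promoter.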 Format: functional.

Another assay addresses T4, Protein skinhead-1 (Caenorhabditis elegans, UniProt P34707).
T4 sequence (P34707 whole entry): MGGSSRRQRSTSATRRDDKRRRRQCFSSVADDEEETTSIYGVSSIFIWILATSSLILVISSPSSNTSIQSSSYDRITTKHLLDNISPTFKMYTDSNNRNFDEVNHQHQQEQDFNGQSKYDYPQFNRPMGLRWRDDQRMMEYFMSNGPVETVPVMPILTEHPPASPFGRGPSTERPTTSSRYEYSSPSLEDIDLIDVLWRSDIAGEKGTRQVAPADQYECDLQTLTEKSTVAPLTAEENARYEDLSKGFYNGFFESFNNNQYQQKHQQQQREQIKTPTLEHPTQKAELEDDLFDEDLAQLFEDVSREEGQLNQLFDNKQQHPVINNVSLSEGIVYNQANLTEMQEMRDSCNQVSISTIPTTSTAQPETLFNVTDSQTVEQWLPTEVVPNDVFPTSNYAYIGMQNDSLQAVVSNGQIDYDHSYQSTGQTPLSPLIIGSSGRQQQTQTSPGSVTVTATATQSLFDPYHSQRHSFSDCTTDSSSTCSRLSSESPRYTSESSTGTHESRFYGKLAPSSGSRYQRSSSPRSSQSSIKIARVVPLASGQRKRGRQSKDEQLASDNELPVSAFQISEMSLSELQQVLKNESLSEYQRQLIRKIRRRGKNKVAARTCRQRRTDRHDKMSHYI
Format: functional.

Assay [12] deals with T5, Heat shock factor protein 1 (Mus musculus, UniProt P38532).
T5 sequence (P38532 whole entry): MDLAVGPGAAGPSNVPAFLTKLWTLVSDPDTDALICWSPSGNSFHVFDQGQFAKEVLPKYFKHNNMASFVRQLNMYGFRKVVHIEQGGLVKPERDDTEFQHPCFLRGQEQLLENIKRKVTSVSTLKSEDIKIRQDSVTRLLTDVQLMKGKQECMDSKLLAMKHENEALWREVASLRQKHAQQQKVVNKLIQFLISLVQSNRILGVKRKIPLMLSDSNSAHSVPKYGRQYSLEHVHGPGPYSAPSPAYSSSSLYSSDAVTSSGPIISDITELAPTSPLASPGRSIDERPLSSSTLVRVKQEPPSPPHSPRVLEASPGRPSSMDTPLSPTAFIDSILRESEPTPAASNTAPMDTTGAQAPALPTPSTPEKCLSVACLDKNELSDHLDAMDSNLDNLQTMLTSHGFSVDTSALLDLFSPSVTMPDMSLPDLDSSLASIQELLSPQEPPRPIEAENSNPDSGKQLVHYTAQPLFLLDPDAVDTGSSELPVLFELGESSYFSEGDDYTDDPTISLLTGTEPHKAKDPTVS
The assay can be described thus: inhibition of MG132-induced HSE-luciferase signal, confirmation, cell-based, NIH3T3, luminescence, dose retest (AID 2382).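 Further: NIH3T3 fibroblasts with HSF1-driven luciferase reporter stressed by proteasome inhibitor MG132; luminescence from HSF1-driven luciferase expression after 8 hours of MG132 stress.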 In kind it is functional.

The target in assay [13] is T5, Heat shock factor protein 1. The assay can be described thus: HSF1 potentiators in luciferase reporter cells, confirmation, cell-based, NIH3T3, luminescence, dose retest (AID 435004).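 Further: stress induced by proteasome inhibitor MG132 added 30 min after compound; luciferase reporter driven by HSF1 response element in NIH3T3 cells; actives raise luminescence as potentiators of the MG132 stress response.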 In kind it is functional. A general note: Reporter assays use an easily measured gene product as a stand-in for the process of interest.
Assay [14] deals with Luciferin 4-monooxygenase (Photinus pyralis, UniProt P08659). The assay is described as follows: firefly luciferase enzyme inhibitors, dose response, biochemical, luminescence (AID 1891).
Luciferin 4-monooxygenase, sequence (P08659 whole entry): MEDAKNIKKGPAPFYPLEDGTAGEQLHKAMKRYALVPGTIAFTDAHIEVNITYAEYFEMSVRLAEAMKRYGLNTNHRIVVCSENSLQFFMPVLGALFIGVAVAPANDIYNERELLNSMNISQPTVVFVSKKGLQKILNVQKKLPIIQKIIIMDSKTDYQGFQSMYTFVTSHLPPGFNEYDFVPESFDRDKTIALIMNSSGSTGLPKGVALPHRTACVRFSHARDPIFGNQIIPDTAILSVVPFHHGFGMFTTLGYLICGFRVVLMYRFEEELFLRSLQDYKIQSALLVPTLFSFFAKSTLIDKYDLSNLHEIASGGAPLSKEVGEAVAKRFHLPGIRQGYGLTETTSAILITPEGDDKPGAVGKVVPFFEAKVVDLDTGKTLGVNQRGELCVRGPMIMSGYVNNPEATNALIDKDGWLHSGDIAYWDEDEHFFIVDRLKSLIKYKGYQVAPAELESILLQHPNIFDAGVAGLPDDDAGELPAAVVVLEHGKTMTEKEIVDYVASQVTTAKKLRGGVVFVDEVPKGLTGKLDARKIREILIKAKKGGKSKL
The nature of assay [15]: Luminescence Cell-Based Dose Confirmation HTS to Identify Inhibitors of Platelet Dense Granule Release. [Related pubchem assays: 1663 (Primary HTS), 1678 (Summary of Project)]. In kind it is functional.
Another assay deals with Genome polyprotein (dengue virus type 2, UniProt P29990). The assay can be described thus: Dengue-2 NS5 methyltransferase inhibitors, primary screen, biochemical, confirmation dose response (AID 588689). In kind it is functional.
Genome polyprotein, sequence (P29990 2492-3391 limits assumed): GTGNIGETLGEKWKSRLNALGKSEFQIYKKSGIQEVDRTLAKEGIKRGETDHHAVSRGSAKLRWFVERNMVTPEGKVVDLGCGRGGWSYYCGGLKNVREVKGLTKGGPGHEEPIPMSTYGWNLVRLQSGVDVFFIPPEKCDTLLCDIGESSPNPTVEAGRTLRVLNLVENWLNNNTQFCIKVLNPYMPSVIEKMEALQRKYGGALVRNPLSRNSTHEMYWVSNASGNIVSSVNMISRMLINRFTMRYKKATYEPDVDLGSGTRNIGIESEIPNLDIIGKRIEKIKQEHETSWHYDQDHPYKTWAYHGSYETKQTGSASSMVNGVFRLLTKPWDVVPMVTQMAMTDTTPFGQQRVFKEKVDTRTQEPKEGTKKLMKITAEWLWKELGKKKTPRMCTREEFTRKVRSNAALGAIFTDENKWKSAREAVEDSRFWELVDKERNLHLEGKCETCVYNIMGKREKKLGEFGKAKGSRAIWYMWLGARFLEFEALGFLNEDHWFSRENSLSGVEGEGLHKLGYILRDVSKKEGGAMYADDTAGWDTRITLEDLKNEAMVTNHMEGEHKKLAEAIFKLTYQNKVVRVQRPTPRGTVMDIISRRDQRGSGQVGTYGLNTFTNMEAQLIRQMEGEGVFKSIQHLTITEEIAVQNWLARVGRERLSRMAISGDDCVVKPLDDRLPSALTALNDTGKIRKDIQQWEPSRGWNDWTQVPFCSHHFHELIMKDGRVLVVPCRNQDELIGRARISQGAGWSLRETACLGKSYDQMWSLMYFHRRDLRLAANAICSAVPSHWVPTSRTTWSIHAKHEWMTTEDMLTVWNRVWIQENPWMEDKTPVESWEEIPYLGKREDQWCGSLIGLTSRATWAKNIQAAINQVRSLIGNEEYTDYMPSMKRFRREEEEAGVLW
The target in another assay is Cytochrome P450 3A4 (Homo sapiens, UniProt P08684).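 Further: CYP3A4 tested as one member of a cytochrome P450 panel screen.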
Cytochrome P450 3A4, sequence (P08684 whole entry): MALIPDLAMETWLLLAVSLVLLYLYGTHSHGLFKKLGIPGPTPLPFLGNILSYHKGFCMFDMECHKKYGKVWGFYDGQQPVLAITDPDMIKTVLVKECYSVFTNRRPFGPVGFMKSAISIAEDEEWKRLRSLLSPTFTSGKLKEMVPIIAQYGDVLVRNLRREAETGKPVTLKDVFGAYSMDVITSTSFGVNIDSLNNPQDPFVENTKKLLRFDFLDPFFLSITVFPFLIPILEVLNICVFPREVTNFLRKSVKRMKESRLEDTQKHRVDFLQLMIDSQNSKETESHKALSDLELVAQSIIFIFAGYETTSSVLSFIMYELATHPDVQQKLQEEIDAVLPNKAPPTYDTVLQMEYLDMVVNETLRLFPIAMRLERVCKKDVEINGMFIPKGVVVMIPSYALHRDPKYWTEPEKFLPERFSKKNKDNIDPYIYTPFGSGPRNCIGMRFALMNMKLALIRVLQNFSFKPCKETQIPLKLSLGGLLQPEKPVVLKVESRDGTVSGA

DNA dC->dU-editing enzyme APOBEC-3A, sequence (P31941 whole entry): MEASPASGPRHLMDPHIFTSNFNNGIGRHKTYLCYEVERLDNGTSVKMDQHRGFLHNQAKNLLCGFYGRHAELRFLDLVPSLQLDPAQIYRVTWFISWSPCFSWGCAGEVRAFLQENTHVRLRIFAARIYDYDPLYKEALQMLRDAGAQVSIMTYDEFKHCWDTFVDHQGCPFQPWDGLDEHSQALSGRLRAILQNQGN

For orientation: IC50 means the point on the concentration scale where inhibition reaches its midpoint. As for `COc1cc(/C=C/c2cc[n+](C)cc2)ccc1OCC(=O)Nc1ccccc1`, the IC50 was 2.93 µM (active) in assay [1], 2.02 µM (active) in [2] and 5.84 µM (active) in [3].
A word on the EC50: it is the concentration that produces a half-maximal response. For the molecule `NS(=O)(=O)c1ccc(CCNCc2ccccc2OCc2ccc(F)cc2)cc1`, the EC50 in assay [4] is 3.35 µM (active).
Take `CC(=O)Nc1ccc(-c2ccccc2)s1`: the values for the IC50 in assay [1] and in assay [2] were 5.3 µM (active) and 5.05 µM (active), respectively.
With `N=C1/C(=C/c2ccco2)C(=O)N=C2SC(CC(=O)N3CCCC3)=NN12`, the IC50 is 18.5 µM (active) in [1], 37.6 µM (active) in assay [2] and 7.01 µM (active) in assay [3].
As usually defined, the AC50 is the concentration giving half of the maximal activity seen. In the case of `COc1cc2c(cc1OC)C(c1ccccc1)N(C(=O)CCl)CC2` (stereo not drawn), the EC50 is > 120 µM (not active) in [5]; > 120 µM (not active) in assay [6]; 5.08 µM (inconclusive) in the assay with BJ [7]; > 120 µM (not active) in the assay on H4; 7.81 µM (inconclusive) in the assay on BJ [8]; 4.74 µM (active) in the assay with BJ [9]. For the same molecule, the EC50 in assay [10] was 8.09 µM (active). Moreover, the AC50 in assay [11] is 5.36 µM (active). Besides, the IC50 on Protein skinhead-1 was > 100 µM (inactive).
With `CCCC[N+]12CCC(CC1)C(C(O)(c1ccccc1)c1ccccc1)C2` (stereo not drawn), in assay [12], the EC50 is given as > 195 µM (not active). In addition, the figures for the IC50 in [1] and in assay [2] were 2.74 µM (active) and 2.79 µM (active), respectively.
Regarding `O=C(Nc1ccc(Oc2ccccc2)nc1)C1CCN(Cc2ccccc2)CC1`, the EC50 in assay [4] was 2.37 µM (active).
For the molecule `COC(=O)c1ccc(CSc2nc3ccccc3c(=O)n2CC(C)C)o1`, the EC50 in assay [4] is 3.35 µM (active); in [13], > 260 µM (inactive).
Take `CNC(=O)COc1ccc2oc3c(c2c1)CCCC3`: the EC50 in assay [4] was 1.33 µM (active).
As for `CC1(C)CC(=O)C=C(NC2=CC3OC(c4ccccc4)OCC3OC2=O)C1` (stereo not drawn), the EC50 in assay [14] is > 112 µM (not active); in assay [15], 14.8 µM (active); in assay [13], 6.65 µM (inconclusive). In assay [11], the AC50 is 7.71 µM (active). The IC50 at Genome polyprotein is > 100 µM (active).
On to `CCCCNc1nc(-c2ccccc2)c(C(=O)OCC)cc1C#N`, for which the EC50 in assay [4] was 1.19 µM (active). Further, at Cytochrome P450 3A4, the AC50 is 28.2 µM (inconclusive).
With `CCOC(=O)c1cc(C#N)c(N2CCCCC2)nc1-c1ccccc1`, in assay [4], the EC50 was 3.76 µM (active).

Source of the values: ChEMBL document CHEMBL1201862, “PubChem BioAssay data set” (2004).
